Measured values published in US20240368214A1, “POSITIVE NMDA-MODULATING COMPOUNDS AND METHODS OF USE THEREOF” (SAGE THERAPEUTICS, INC., priority 2021, published 2024).
Read-outs that look alike come from different tables or passages of the source.

Biological target: T1, recombinant human GluN1/GluN2A receptor (Homo sapiens, UniProt Q05586+Q12879)
T1 construct: expressed in transfected cells; host or cells: HEK293, tetracycline-inducible expression
Experiment: Whole-cell patch clamp of mammalian cells (Syncropatch 384i), NMDA modulation
Format: cell-based
Settings: HEK293 cells, human GluN1/GluN2A, glutamate 1 μM / glycine 100 μM, -80 mV, peak amplitude increase; for EC50: read-out: EC50
In short: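 HEK293 cells with tetracycline-induced (50 ng/ml, 18–24 h) human GluN1/GluN2A, automated whole-cell recording at −80 mV, pH 7.4 external. After 120 s compound pre-incubation, compound applied with glutamate 1 μM/glycine 100 μM; fold peak increase (Icomp/Icontrol)−1 over 8 concentrations fitted four-parameter logistic.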

T1 sequence (Q12879 23-1464, other chains not shown): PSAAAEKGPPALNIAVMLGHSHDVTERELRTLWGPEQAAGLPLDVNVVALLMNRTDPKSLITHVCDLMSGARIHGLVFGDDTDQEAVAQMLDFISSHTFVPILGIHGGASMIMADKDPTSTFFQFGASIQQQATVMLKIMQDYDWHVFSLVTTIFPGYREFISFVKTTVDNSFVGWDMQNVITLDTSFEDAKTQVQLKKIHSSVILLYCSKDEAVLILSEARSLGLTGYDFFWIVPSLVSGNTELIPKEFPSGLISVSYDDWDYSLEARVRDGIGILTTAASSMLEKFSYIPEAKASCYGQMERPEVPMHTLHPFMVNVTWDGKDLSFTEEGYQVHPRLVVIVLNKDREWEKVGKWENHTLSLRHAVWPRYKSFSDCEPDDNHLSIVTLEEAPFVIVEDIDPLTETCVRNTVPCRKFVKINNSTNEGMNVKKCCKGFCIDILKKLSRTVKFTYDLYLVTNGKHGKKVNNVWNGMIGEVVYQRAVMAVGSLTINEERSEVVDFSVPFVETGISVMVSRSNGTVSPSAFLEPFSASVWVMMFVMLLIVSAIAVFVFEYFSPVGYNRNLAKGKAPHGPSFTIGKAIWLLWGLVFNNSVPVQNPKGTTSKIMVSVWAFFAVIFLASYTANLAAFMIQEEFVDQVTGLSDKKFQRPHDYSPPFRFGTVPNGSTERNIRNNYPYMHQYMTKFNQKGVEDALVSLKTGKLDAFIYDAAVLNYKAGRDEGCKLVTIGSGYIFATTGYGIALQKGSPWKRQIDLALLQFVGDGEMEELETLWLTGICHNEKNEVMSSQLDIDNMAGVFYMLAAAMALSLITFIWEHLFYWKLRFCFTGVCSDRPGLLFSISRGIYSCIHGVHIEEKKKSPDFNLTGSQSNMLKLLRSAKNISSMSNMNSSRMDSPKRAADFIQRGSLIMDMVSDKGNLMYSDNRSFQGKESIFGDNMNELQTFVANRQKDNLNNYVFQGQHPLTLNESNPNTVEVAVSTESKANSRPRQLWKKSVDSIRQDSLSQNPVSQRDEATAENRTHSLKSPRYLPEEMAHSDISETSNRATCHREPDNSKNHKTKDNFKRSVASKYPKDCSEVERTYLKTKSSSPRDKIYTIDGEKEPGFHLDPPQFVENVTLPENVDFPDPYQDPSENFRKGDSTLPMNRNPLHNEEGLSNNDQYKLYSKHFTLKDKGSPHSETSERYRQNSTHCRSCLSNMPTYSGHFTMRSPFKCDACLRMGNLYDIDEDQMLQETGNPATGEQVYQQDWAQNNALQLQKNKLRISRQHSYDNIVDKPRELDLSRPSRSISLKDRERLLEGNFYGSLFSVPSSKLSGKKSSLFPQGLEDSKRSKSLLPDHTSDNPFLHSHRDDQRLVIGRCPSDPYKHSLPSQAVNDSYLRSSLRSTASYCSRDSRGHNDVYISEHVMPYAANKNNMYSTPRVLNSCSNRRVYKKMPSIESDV

CC[C@@]1(O)CC[C@@H]2CC[C@@H]3[C@H](CC[C@]4(C)[C@@H]([C@H](C)CC[C@](C)(O)C(F)(F)F)CC[C@@H]34)[C@@]2(C)CC1 [Compound D-3, (1R,3aS,3bR,5aS,8R,10aS,10bS,12aR)-8-ethyl-10a,12a-dimethyl-1-((2R,5S)-6,6,6-trifluoro-5-hydroxy-5-methylhexan-2-yl)octadecahydrocyclohepta[a]cyclopenta[f]naphthalen-8-ol]
Emax (Table D-2): 100 to 200% | EC50 (Table D-2): 100 to 500 nM

CC[C@]1(O)CC[C@@]2(C)[C@@H](CC[C@@H]3[C@@H]2CC[C@]2(C)[C@@H]([C@H](C)CC[C@@H](O)C(C)(C)C#N)CC[C@@H]32)C1 [Compound C-1, (3R,6R)-6-((3S,5S,8R,9S,10S,13R,14S,17R)-3-ethyl-3-hydroxy-10,13-dimethylhexadecahydro-1H-cyclopenta[a]phenanthren-17-yl)-3-hydroxy-2,2-dimethylheptanenitrile]
Emax (Table C-2): > 200% | EC50 (Table C-2): 1 to 100 nM

CC[C@]1(O)CC[C@@]2(C)[C@@H](CC[C@@H]3[C@@H]2CC[C@]2(C)[C@@H]([C@H](C)CC[C@@H](O)CC#N)CC[C@@H]32)C1 [Compound C-11, (3R,6R)-6-((3S,5S,8R,9S,10S,13R,14S,17R)-3-ethyl-3-hydroxy-10,13-dimethylhexadecahydro-1H-cyclopenta[a]phenanthren-17-yl)-3-hydroxyheptanenitrile]
Emax (Table C-2): 100 to 200% | EC50 (Table C-2): 1 to 100 nM

CC[C@]1(O)CC[C@@]2(C)[C@@H](CC[C@@H]3[C@@H]2CC[C@]2(C)[C@@H]([C@H](C#N)CCCC(C)(C)O)CC[C@@H]32)C1 [Compound A-9, (R)-2-((3S,5S,8R,9S,10S,13S,14S,17R)-3-ethyl-3-hydroxy-10,13-dimethylhexadecahydro-1H-cyclopenta[a]phenanthren-17-yl)-6-hydroxy-6-methylheptanenitrile]
Emax (Table A-2): > 200% | EC50 (Table A-2): 1 to 100 nM

CC[C@]1(O)CC[C@]2(C)C3=CC[C@]4(C)[C@@H]([C@H](C)CCC5(O)CCCC5)CC[C@H]4[C@@H]3CC[C@H]2C1 [Compound E-6, (3S,5S,8S,10S,13R,14S,17R)-3-ethyl-17-((R)-4-(1-hydroxycyclopentyl)butan-2-yl)-10,13-dimethyl-2,3,4,5,6,7,8,10,12,13,14,15,16,17-tetradecahydro-1H-cyclopenta[a]phenanthren-3-ol]
Emax (Table E-2): > 200% | EC50 (Table E-2): 1 to 100 nM

C[C@H](CC[C@](C)(O)C(F)(F)F)[C@H]1CCC[C@H]2[C@@H]3CC=C4C[C@@](C)(O)CC[C@]4(C)[C@H]3CC[C@]12C [Compound H-1, (2S,4aR,4bS,6aR,7R,10aS,10bS)-2,4a,6a-trimethyl-7-((2R,5S)-6,6,6-trifluoro-5-hydroxy-5-methylhexan-2-yl)-1,2,3,4,4a,4b,5,6,6a,7,8,9,10,10a,10b,11-hexadecahydrochrysen-2-ol]
Emax (Table H-2): 100 to 200% | EC50 (Table H-2): 500 to 1000 nM

CC[C@]1(O)CC[C@@]2(C)[C@@H](CC[C@@H]3[C@@H]2CC[C@@]2(C)[C@H]3C[C@H]3C[C@]32[C@H](C)CC[C@](C)(O)C(F)(F)F)C1 [Compound B-10, (2aS,4S,6aS,6bS,8aS,8bS,9aS,10aS,10bR)-4-ethyl-6a,8a-dimethyl-8b-((2R,5S)-6,6,6-trifluoro-5-hydroxy-5-methylhexan-2-yl)octadecahydrocyclopropa[3,4]cyclopenta[1,2-a]phenanthren-4-ol]
Emax (Table B-2): 100 to 200% | EC50 (Table B-2): 1 to 100 nM

CC[C@]1(O)CC[C@]2(C)C3=CC[C@]4(C)[C@@H]([C@H](C)CC[C@@H](O)C5(C#N)CC5)CC[C@H]4[C@@H]3CC[C@H]2C1 [Compound C-27, 1-((1R,4R)-4-((3S,5S,8S,10S,13R,14S,17R)-3-ethyl-3-hydroxy-10,13-dimethyl-2,3,4,5,6,7,8,10,12,13,14,15,16,17-tetradecahydro-1H-cyclopenta[a]phenanthren-17-yl)-1-hydroxypentyl)cyclopropane-1-carbonitrile]
EC50 (Table C-2): 1 to 100 nM | EC50 (Table E-2): 1 to 100 nM

CC[C@]1(O)CC[C@@]2(C)[C@@H](CC[C@@H]3[C@@H]2CC[C@@]2(C)[C@H]3C[C@H]3C[C@]32[C@H](C)CC[C@@](C)(O)C(F)(F)F)C1 [Compound B-11, (2aS,4S,6aS,6bS,8aS,8bS,9aS,10aS,10bR)-4-ethyl-6a,8a-dimethyl-8b-((2R,5R)-6,6,6-trifluoro-5-hydroxy-5-methylhexan-2-yl)octadecahydrocyclopropa[3,4]cyclopenta[1,2-a]phenanthren-4-ol]
Emax (Table B-2): 100 to 200% | EC50 (Table B-2): 1 to 100 nM

CC[C@]1(O)CC[C@@]2(C)[C@@H](CC[C@@H]3[C@@H]2CC[C@]2(C)[C@@H]([C@H](C)CCCC(C)(C)O)[C@H](C)C[C@@H]32)C1 [Compound B-22, (3S,5S,8R,9S,10S,13S,14S,16R,17S)-3-ethyl-17-((R)-6-hydroxy-6-methylheptan-2-yl)-10,13,16-trimethylhexadecahydro-1H-cyclopenta[a]phenanthren-3-ol]
Emax (Table B-2): > 200% | EC50 (Table B-2): 100 to 500 nM

C[C@H](CCCO)[C@H]1CC[C@H]2[C@@H]3CC[C@H]4C[C@@](C)(O)CC[C@]4(C)C3=CC[C@]12C [Compound E-10, (3S,5S,8S,10S,13R,14S,17R)-17-((R)-5-hydroxypentan-2-yl)-3,10,13-trimethyl-2,3,4,5,6,7,8,10,12,13,14,15,16,17-tetradecahydro-1H-cyclopenta[a]phenanthren-3-ol]
Emax (Table E-2): < 100% | EC50 (Table E-2): 1 to 100 nM

CC[C@]1(O)CC[C@@]2(C)C(=CC[C@H]3[C@@H]4CC[C@H]([C@H](C)CC[C@H](O)C(C)C)[C@@]4(CC)CC[C@@H]32)C1 [Compound F-5, (3S,8S,9S,10R,13R,14S,17R)-3,13-diethyl-17-((2R,5S)-5-hydroxy-6-methylheptan-2-yl)-10-methyl-2,3,4,7,8,9,10,11,12,13,14,15,16,17-tetradecahydro-1H-cyclopenta[a]phenanthren-3-ol]
EC50 (Table F-2): 100 to 500 nM

CC[C@]1(O)CC[C@@]2(C)C(=CC[C@H]3[C@@H]4CC[C@H]([C@H](C)CC[C@H](O)C5(C#N)CC5)[C@@]4(C)CC[C@@H]32)C1 [Compound C-20, 1-((1S,4R)-4-((3S,8S,9S,10R,13R,14S,17R)-3-ethyl-3-hydroxy-10,13-dimethyl-2,3,4,7,8,9,10,11,12,13,14,15,16,17-tetradecahydro-1H-cyclopenta[a]phenanthren-17-yl)-1-hydroxypentyl)cyclopropane-1-carbonitrile]
EC50 (Table C-2): 100 to 500 nM

CC[C@]1(O)CC[C@@]2(C)C(=CC[C@H]3[C@@H]4CC[C@H]([C@@H](CC[C@@](C)(O)C(F)(F)F)OC)[C@@]4(C)CC[C@@H]32)C1 [Compound A-13, (3S,8S,9S,10R,13S,14S,17S)-3-ethyl-10,13-dimethyl-17-((1R,4R)-5,5,5-trifluoro-4-hydroxy-1-methoxy-4-methylpentyl)-2,3,4,7,8,9,10,11,12,13,14,15,16,17-tetradecahydro-1H-cyclopenta[a]phenanthren-3-ol]
Emax (Table A-2): > 200% | EC50 (Table A-2): 500 to 1000 nM

CC[C@]1(O)CC[C@@]2(C)[C@@H](CC[C@@H]3[C@@H]2CC[C@]2(C)[C@@H]([C@H](C)CC[C@@H](O)C(C)C)[C@H](C)C[C@@H]32)C1 [Compound B-24, (3S,5S,8R,9S,10S,13S,14S,16R,17S)-3-ethyl-17-((2R,5R)-5-hydroxy-6-methylheptan-2-yl)-10,13,16-trimethylhexadecahydro-1H-cyclopenta[a]phenanthren-3-ol]
Emax (Table B-2): > 200% | EC50 (Table B-2): 100 to 500 nM

CC[C@]1(O)CC[C@]2(C)C3=CC[C@]4(C)[C@@H]([C@H](C)CC[C@H](O)C5(C#N)CC5)CC[C@H]4[C@@H]3CC[C@H]2C1 [Compound C-26, 1-((1S,4R)-4-((3S,5S,8S,10S,13R,14S,17R)-3-ethyl-3-hydroxy-10,13-dimethyl-2,3,4,5,6,7,8,10,12,13,14,15,16,17-tetradecahydro-1H-cyclopenta[a]phenanthren-17-yl)-1-hydroxypentyl)cyclopropane-1-carbonitrile]
EC50 (Table C-2): 1 to 100 nM | EC50 (Table E-2): 1 to 100 nM

CCO[C@H](CC[C@H](O)C(C)C)[C@H]1CC[C@H]2[C@@H]3CC[C@H]4C[C@](O)(CC)CC[C@]4(C)[C@H]3CC[C@]12C [Compound A-11, (3S,5S,8R,9S,10S,13S,14S,17S)-17-((1R,4S)-1-ethoxy-4-hydroxy-5-methylhexyl)-3-ethyl-10,13-dimethylhexadecahydro-1H-cyclopenta[a]phenanthren-3-ol]
EC50 (Table A-2): > 1000 nM
